Key:
Experiment in all cases: Oncotest CellTiter-Blue cell viability assay, 72 hours
Type in all cases: cell-based, human
[1] = tested on: PRXF PC-3; details: PRXF PC-3
Procedure: (§1) Further studies with varying drug concentrations on selected human cell lines, in most cases those studied in the NCI60 screen, were conducted by Oncotest GmbH laboratories, Freiburg, Germany; Oncotest is a division of Charles River Laboratories. The dissolution procedure for PBZ and the cell culture […] was 72 hours; anti-tumor activity was determined with the CellTiter-Blue® Cell Viability Assay, Promega, Mannheim, Germany. The 50% Inhibitory (IC50) concentrations were determined. The results are the average of duplicate assays. Paclitaxel was included as a reference compound to confirm the integrity of the assays. See S1 Appendix for further details.
(§2) “Cell lines were routinely passaged once or twice weekly and maintained in culture for up to 20 passages. Cells were grown at 37°C in a humidified atmosphere with 5% CO2 in RPMI 1640 medium (25 mM HEPES, with L-glutamine, #FG1385, Biochrom, Berlin, Germany) supplemented with 10% (v/v) fetal calf serum (Sigma, Taufkirchen, Germany) and 0.1 mg/mL gentamicin (Life Technologies, Karlsruhe, Germany).”

[2] = tested on: CNXF U-251
Procedure: as §1, §2

[3] = tested on: MEXF UACC-257
Procedure: as §1, §2

[4] = tested on: LYXF DLBC SU-DHL-1
Procedure: as §1, §2

[5] = CNXF U-251, 1% FCS, study P495C
[6] = CNXF U-251, 10% FCS, study P495A
[7] = MEXF UACC-257, 1% FCS, study P495C
[8] = MEXF UACC-257, 10% FCS, study P495A
[9] = LYXF SU-DHL-1, 1% FCS, study P495C
[10] = LYXF SU-DHL-1, 10% FCS, study P495B

SMILES: CC(COc1ccccc1)N(CCCl)Cc1ccccc1 (stereo not drawn) [PBZ, phenoxybenzamine]
- Test/Control (%) at Drug Concentration [uM] 1,0E+01 ([1]; 1% FCS, study P495C): 100%
- Test/Control (%) at Drug Concentration [uM] 1,0E+02 ([1]; 1% FCS, study P495C): 22%
- Test/Control (%) at Drug Concentration [uM] 3,2E+00 ([1]; 1% FCS, study P495C): 105%
- Test/Control (%) at Drug Concentration [uM] 3,2E+01 ([1]; 1% FCS, study P495C): 58%
- Test/Control (%) at Drug Concentration [uM] 1,0E+00 ([1]; 10% FCS, study P495A): 86%
- Test/Control (%) at Drug Concentration [uM] 1,0E+01 ([1]; 10% FCS, study P495A): 86%
- Test/Control (%) at Drug Concentration [uM] 1,0E+02 ([1]; 10% FCS, study P495A): 52%
- Test/Control (%) at Drug Concentration [uM] 1,0E-01 ([1]; 10% FCS, study P495A): 87%
- Test/Control (%) at Drug Concentration [uM] 1,0E-02 ([1]; 10% FCS, study P495A): 83%
- Test/Control (%) at Drug Concentration [uM] 3,2E+00 ([1]; 10% FCS, study P495A): 89%
- Test/Control (%) at Drug Concentration [uM] 3,2E+01 ([1]; 10% FCS, study P495A): 82%
- Test/Control (%) at Drug Concentration [uM] 3,2E-01 ([1]; 10% FCS, study P495A): 91%
- Test/Control (%) at Drug Concentration [uM] 3,2E-02 ([1]; 10% FCS, study P495A): 87%
- Test/Control (%) at Drug Concentration [uM] 3,2E-03 ([1]; 10% FCS, study P495A): 91%
- Test/Control (%) at Drug Concentration [uM] 1,0E+00 ([1]; 10% FCS, study P495B): 89%
- Test/Control (%) at Drug Concentration [uM] 1,0E+01 ([1]; 10% FCS, study P495B): 77%
- Test/Control (%) at Drug Concentration [uM] 1,0E+02 ([1]; 10% FCS, study P495B): 49%
- Test/Control (%) at Drug Concentration [uM] 1,0E-01 ([1]; 10% FCS, study P495B): 84%
- Test/Control (%) at Drug Concentration [uM] 1,0E-02 ([1]; 10% FCS, study P495B): 88%
- Test/Control (%) at Drug Concentration [uM] 1,0E-03 ([1]; 10% FCS, study P495B): 81%
- Test/Control (%) at Drug Concentration [uM] 3,2E+00 ([1]; 10% FCS, study P495B): 92%
- Test/Control (%) at Drug Concentration [uM] 3,2E+01 ([1]; 10% FCS, study P495B): 74%
- Test/Control (%) at Drug Concentration [uM] 1,0E+00 [2, 5]: 98%
- Test/Control (%) at Drug Concentration [uM] 1,0E+01 [2, 5]: 102%
- Test/Control (%) at Drug Concentration [uM] 1,0E+02 [2, 5]: 36%
- Test/Control (%) at Drug Concentration [uM] 3,2E+00 [2, 5]: 102%
- Test/Control (%) at Drug Concentration [uM] 3,2E+01 [2, 5]: 98%
- Test/Control (%) at Drug Concentration [uM] 1,0E+00 [2, 6]: 92%
- Test/Control (%) at Drug Concentration [uM] 1,0E+01 [2, 6]: 103%
- Test/Control (%) at Drug Concentration [uM] 1,0E+02 [2, 6]: 98%
- Test/Control (%) at Drug Concentration [uM] 1,0E-01 [2, 6]: 90%
- Test/Control (%) at Drug Concentration [uM] 1,0E-02 [2, 6]: 90%
- Test/Control (%) at Drug Concentration [uM] 3,2E+00 [2, 6]: 94%
- Test/Control (%) at Drug Concentration [uM] 3,2E+01 [2, 6]: 118%
- Test/Control (%) at Drug Concentration [uM] 3,2E-01 [2, 6]: 93%
- Test/Control (%) at Drug Concentration [uM] 3,2E-02 [2, 6]: 93%
- Test/Control (%) at Drug Concentration [uM] 3,2E-03 [2, 6]: 85%
- IC50 ([2]; Homo sapiens, CNXF U-251 CNS, 1% FCS): 83.1 µM
- Percent cell growth in Oncotest screen with 10% FCS (72 hr incubation) ([3]; 10 μM phenoxybenzamine, UACC-257): 107%
- IC50 ([3]; Homo sapiens, MEXF UACC-257 Melanoma, 1% FCS): 49.8 µM
- Test/Control (%) at Drug Concentration [uM] 1,0E+00 [3, 7]: 101%
- Test/Control (%) at Drug Concentration [uM] 1,0E+01 [3, 7]: 107%
- Test/Control (%) at Drug Concentration [uM] 1,0E+02 [3, 7]: 41%
- Test/Control (%) at Drug Concentration [uM] 3,2E+00 [3, 7]: 106%
- Test/Control (%) at Drug Concentration [uM] 3,2E+01 [3, 7]: 77%
- Test/Control (%) at Drug Concentration [uM] 1,0E+00 [3, 8]: 101%
- Test/Control (%) at Drug Concentration [uM] 1,0E+01 [3, 8]: 107%
- Test/Control (%) at Drug Concentration [uM] 1,0E+02 [3, 8]: 68%
- Test/Control (%) at Drug Concentration [uM] 1,0E-01 [3, 8]: 101%
- Test/Control (%) at Drug Concentration [uM] 1,0E-02 [3, 8]: 101%
- Test/Control (%) at Drug Concentration [uM] 3,2E+00 [3, 8]: 109%
- Test/Control (%) at Drug Concentration [uM] 3,2E+01 [3, 8]: 106%
- Test/Control (%) at Drug Concentration [uM] 3,2E-01 [3, 8]: 104%
- Test/Control (%) at Drug Concentration [uM] 3,2E-02 [3, 8]: 113%
- Test/Control (%) at Drug Concentration [uM] 3,2E-03 [3, 8]: 103%
- IC50 ([4]; Homo sapiens, LYXFDLBC SU-DHL-1 Lymphoma, 1% FCS): 29.5 µM
- Test/Control (%) at Drug Concentration [uM] 1,0E+00 [4, 9]: 97%
- Test/Control (%) at Drug Concentration [uM] 1,0E+01 [4, 9]: 91%
- Test/Control (%) at Drug Concentration [uM] 1,0E+02 [4, 9]: 7%
- Test/Control (%) at Drug Concentration [uM] 3,2E+00 [4, 9]: 96%
- Test/Control (%) at Drug Concentration [uM] 3,2E+01 [4, 9]: 45%
- Test/Control (%) at Drug Concentration [uM] 1,0E+00 [4, 10]: 98%
- Test/Control (%) at Drug Concentration [uM] 1,0E+01 [4, 10]: 100%
- Test/Control (%) at Drug Concentration [uM] 1,0E+02 [4, 10]: 0%
- Test/Control (%) at Drug Concentration [uM] 1,0E-01 [4, 10]: 100%
- Test/Control (%) at Drug Concentration [uM] 1,0E-02 [4, 10]: 100%
- Test/Control (%) at Drug Concentration [uM] 1,0E-03 [4, 10]: 100%
- Test/Control (%) at Drug Concentration [uM] 3,2E+00 [4, 10]: 100%
- Test/Control (%) at Drug Concentration [uM] 3,2E+01 [4, 10]: 94%
